For 10 compounds, Kd, DC50 and IC50 results are on record in US8993594B2, “Isoquinolin-1(2H)-one derivatives as PARP-1 inhibitors” (Nerviano Medical Sciences S.R.L., priority 2009, dated 2015).

In general, Kd refers to the concentration at which binding is half-saturated. A high value points to weaker binding. One may read the IC50 as the concentration that gives 50% inhibition. Low values mean greater potency in that assay, high ones weaker potency in that assay.

Where a name gives a salt, the structure may show the parent alone.

For assay [1], the target named is PARP-1 FL (Homo sapiens, UniProt P09874). Put plainly: Fluorescence polarization probe displacement assay. Type of assay: binding. Conditions: for DC50: half maximal displacement concentration. A general note: In fluorescence polarisation assays a small probe gives low polarisation when free and higher when bound to something large.
Assay [2] has as its target PARP-2 FL (Homo sapiens, UniProt Q9UGN5). Put plainly: Fluorescence polarization probe displacement assay. It counts as binding. The conditions noted are these: for DC50: compound P1 as the probe.
Assay [3] deals with hydrogen peroxide induced PAR formation in HeLa cells. Put plainly: Cellular PAR assay (inhibition of hydrogen peroxide induced PAR formation). Type of assay: cell-based. Conditions: Homo sapiens, 0.1 mM hydrogen peroxide 15 min.
Experimental: Compounds potencies were evaluated by measuring the inhibition of poly (ADP-ribose) (PAR) chains formation as a marker for PARP-1 inhibition.
Cellular activity of PARP-1 inhibitors was assessed by measuring the inhibition of the hydrogen peroxide induced PAR formation in HeLa cells (ECACC). Cellular PAR levels were measured by immunocytochemistry and quantified using an ArrayScan vTi instrument (Cellomics Thermo Scientific).
Studies were performed as follows: 6000 cells/well were seeded in 96 well plates (Perkin Elmer) in MEM/10% FCS and incubated for 24 hours at 37° C., 5% carbon dioxide. Test compounds were then added at the required concentration for 30′. […] Concentration curves were prepared in MEM/10% FCS from compound stocks in DMSO and final DMSO concentration was 0.002% (v/v). Duplicate wells for each concentration point were prepared with a typical highest compound concentration of 20 μM and serial dilution 1:3. […] Non-specific binding sites were blocked by incubating wells for 30 min in PBS containing 5% (w/v) FBS 0.05% tween20. […] After washing further 3 times in PBS, cellular PAR immunoreactivity was assessed using the ArrayScan vTi instrument, with a Zeiss 10×0.5 N.A. objective, and applying the Cytotoxicity.V3 algorithm (Cellomics/Thermo Fisher) with a XF100 filter. At least 10 fields, corresponding to at least 900 cells, were read for each well.
The following formula is used: IC50=Bottom+(Top−Bottom)/(1+10^((Log EC50−X))); X is the logarithm of concentration. IC50 is the response; IC50 starts at Bottom and goes to Top with a sigmoid shape.
In assay [4] the target is T1, PARP-3 FL (Homo sapiens, UniProt Q9Y6F1).
T1 sequence (Q9Y6F1 1-533): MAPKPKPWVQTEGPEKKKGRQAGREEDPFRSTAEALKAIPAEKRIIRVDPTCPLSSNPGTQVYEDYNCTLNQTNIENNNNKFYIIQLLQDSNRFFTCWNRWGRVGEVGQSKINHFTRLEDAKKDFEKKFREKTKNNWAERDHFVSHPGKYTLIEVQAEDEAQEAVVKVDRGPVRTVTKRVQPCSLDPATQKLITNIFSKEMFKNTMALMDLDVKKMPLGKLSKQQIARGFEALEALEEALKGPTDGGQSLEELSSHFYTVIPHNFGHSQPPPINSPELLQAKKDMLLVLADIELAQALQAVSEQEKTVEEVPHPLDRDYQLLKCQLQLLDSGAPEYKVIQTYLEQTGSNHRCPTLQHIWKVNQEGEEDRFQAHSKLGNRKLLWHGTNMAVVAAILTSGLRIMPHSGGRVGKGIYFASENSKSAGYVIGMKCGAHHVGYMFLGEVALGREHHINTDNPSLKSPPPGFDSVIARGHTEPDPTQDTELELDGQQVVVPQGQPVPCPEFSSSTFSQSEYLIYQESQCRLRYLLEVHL
Nature of the assay: Fluorescence polarization probe displacement assay. It counts as binding. The conditions noted are these: compound P1 as the probe.

PARP-2 FL, sequence (Q9UGN5 whole entry): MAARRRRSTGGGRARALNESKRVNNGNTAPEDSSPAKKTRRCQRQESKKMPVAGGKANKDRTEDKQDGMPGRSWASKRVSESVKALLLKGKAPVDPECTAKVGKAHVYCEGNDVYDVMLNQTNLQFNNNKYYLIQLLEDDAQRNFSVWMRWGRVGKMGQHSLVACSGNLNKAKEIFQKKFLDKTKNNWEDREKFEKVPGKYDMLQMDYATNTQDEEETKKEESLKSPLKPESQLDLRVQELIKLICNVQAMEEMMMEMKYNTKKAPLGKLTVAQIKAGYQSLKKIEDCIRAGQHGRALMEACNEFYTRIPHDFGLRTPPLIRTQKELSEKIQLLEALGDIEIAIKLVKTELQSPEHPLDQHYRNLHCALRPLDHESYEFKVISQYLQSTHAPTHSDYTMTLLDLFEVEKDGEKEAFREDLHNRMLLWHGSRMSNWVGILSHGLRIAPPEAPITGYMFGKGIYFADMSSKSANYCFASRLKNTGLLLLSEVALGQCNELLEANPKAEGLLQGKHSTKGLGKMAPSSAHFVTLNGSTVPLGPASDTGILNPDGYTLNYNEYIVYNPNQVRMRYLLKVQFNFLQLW
PARP-1 FL, sequence (P09874 whole entry): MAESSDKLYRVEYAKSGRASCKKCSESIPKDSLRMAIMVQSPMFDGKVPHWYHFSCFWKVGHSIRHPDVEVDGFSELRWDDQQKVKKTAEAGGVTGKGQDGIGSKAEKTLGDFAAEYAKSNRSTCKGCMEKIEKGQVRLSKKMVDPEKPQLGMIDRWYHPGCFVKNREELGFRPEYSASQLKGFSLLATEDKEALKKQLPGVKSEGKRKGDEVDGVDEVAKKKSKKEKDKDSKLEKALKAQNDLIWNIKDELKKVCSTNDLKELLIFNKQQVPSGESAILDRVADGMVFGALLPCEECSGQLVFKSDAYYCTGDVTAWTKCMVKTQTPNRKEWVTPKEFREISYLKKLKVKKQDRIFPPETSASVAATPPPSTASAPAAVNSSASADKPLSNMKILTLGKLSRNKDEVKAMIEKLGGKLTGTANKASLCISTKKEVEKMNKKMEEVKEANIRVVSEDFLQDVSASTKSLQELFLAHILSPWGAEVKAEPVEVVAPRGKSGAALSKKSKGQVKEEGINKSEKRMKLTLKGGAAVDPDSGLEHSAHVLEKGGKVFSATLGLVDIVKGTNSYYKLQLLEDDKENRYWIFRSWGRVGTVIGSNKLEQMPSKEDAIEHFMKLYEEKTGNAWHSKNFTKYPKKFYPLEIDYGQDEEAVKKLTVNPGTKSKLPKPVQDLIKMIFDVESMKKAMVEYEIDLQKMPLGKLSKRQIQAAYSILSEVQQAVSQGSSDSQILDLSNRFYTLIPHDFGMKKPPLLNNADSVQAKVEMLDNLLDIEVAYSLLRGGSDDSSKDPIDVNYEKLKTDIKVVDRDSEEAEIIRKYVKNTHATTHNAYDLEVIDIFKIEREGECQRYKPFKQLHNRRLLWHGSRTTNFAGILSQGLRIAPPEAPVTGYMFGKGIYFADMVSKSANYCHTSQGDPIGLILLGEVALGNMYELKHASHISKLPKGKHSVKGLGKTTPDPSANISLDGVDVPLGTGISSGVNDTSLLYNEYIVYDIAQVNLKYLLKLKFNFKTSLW

For `Cc1cccc2c(=O)[nH]c(-c3ccccc3)c(OCCN)c12` [Compound 49, 4-(2-Amino-ethoxy)-5-methyl-3-phenyl-2H-isoquinolin-1-one hydrochloride], the dissociation constant (Kd) in assay [1] is < 0.01 µM. Besides, the values for the DC50 in assay [1], in assay [2] and in assay [4] were < 0.25 µM, 0.97 µM and 0.2 µM, respectively. The IC50 in assay [3] came to 0.09 µM.

On to `CN(C)CCOc1c(-c2ccccc2)[nH]c(=O)c2cc(F)ccc12` [Compound 84, 4-[2-(dimethylamino)ethoxy]-7-fluoro-3-phenylisoquinolin-1(2H)-one], for which the figures for the DC50 in assay [1], in assay [2] and in assay [4] were < 0.25 µM, 3.86 µM and 1.11 µM, respectively. Besides, in assay [3], the half-maximal inhibitory concentration (IC50) is 0.57 µM.

Take `COc1cccc(-c2[nH]c(=O)c3cc(F)ccc3c2OCCN)c1` [Compound 46, 4-(2-Amino-ethoxy)-7-fluoro-3-(3-methoxy-phenyl)-2H-isoquinolin-1-one hydrochloride]: the dissociation constant (Kd) in assay [1] is < 0.01 µM; in assay [2], 3.61 µM. The DC50 was < 0.25 µM in assay [1], 5.99 µM in assay [2] and 0.37 µM in assay [4]. The IC50 in assay [3] stood at 0.06 µM.

Take `O=c1[nH]c(-c2cccc(O)c2)c(OCCCN2CCCCC2)c2ccc(F)cc12` [Compound 45, 7-Fluoro-3-(3-hydroxy-phenyl)-4-(3-piperidin-1-yl-propoxy)-2H-isoquinolin-1-one hydrochloride]: the equilibrium dissociation constant (Kd) was < 0.03 µM in assay [1] and 0.12 µM in assay [2]. The DC50 in assay [1] is < 0.25 µM; in assay [2], 0.42 µM; in assay [4], 0.25 µM. Moreover, the IC50 in assay [3] was found to be 0.28 µM.

For `COc1cccc(-c2[nH]c(=O)c3cc(F)ccc3c2OCCCN2CCCCC2)c1` [Compound 43, 7-Fluoro-3-(3-methoxy-phenyl)-4-(3-piperidin-1-yl-propoxy)-2H-isoquinolin-1-one hydrochloride], the Kd in assay [1] turned out to be 0.04 µM; in assay [2], 2.02 µM. For the same compound, the DC50 in assay [1] is < 0.25 µM; in assay [2], 4.21 µM; in assay [4], 2.52 µM. The compound also had a half-maximal inhibitory concentration (IC50) in assay [3] of 0.09 µM.

On to `O=c1[nH]c(-c2ccccc2)c(OCCCNCc2ccccc2)c2ccc(F)cc12` [Compound 87, 4-[3-(benzylamino)propoxy]-7-fluoro-3-phenylisoquinolin-1(2H)-one], for which the values for the DC50 in assay [1], in assay [2] and in assay [4] were < 0.25 µM, > 10 µM and 1.11 µM, respectively. The compound also displayed a half-maximal inhibitory concentration (IC50) in assay [3] of 0.4 µM.

On to `NCCOc1c(-c2cccc(O)c2)[nH]c(=O)c2cc(F)ccc12` [Compound 47, 4-(2-Amino-ethoxy)-7-fluoro-3-(3-hydroxy-phenyl)-2H-isoquinolin-1-one], for which the Kd in assay [1] is < 0.03 µM. Moreover, the figures for the DC50 in assay [1], in assay [2] and in assay [4] were < 0.25 µM, 0.51 µM and 0.22 µM, respectively. The IC50 in assay [3] turned out to be 0.1 µM.

`NCCOc1c(-c2ccc(O)cc2)[nH]c(=O)c2cc(F)ccc12` [Compound 28, 4-(2-Amino-ethoxy)-7-fluoro-3-(4-hydroxy-phenyl)-2H-isoquinolin-1-one hydrobromide]: the dissociation constant Kd in assay [1] is < 0.03 µM. Besides, the DC50 is < 0.25 µM in assay [1], 1.1 µM in assay [2] and 0.47 µM in assay [4]. The IC50 in assay [3] is 0.4 µM.

Turning to `CN1CCN(CCOc2c(-c3ccccc3)[nH]c(=O)c3cc(F)ccc23)CC1` [Compound 89, 7-fluoro-4-[2-(4-methylpiperazin-1-yl)ethoxy]-3-phenylisoquinolin-1(2H)-one trifluoroacetate], the DC50 is 0.4 µM in assay [1], > 10 µM in assay [2] and 6.45 µM in assay [4]. Also, in assay [3], the concentration for half-maximal inhibition (IC50) stood at 7.55 µM.

For `O=c1[nH]c(-c2cccc(Cl)c2)c(OCCCN2CCCCC2)c2ccccc12` [Compound 44, 3-(3-Chloro-phenyl)-4-(3-piperidin-1-yl-propoxy)-2H-isoquinolin-1-one], the values for the Kd in assay [1] and in assay [2] were < 0.03 µM and 0.4 µM, respectively. Besides, the DC50 is < 0.25 µM in assay [1], 0.7 µM in assay [2] and 1.23 µM in assay [4]. Further, in assay [3], the IC50 is 0.13 µM.
